Data from ChEMBL document CHEMBL3779778, “Structure-based design and development of (benz)imidazole pyridones as JAK1-selective kinase inhibitors” (Bioorg Med Chem Lett, 2016).

Experiments:
[1] = Dissociation constant, pKa of the compound; format: physicochemical
[2] = Intrinsic clearance in human liver microsomes; format: ADME; conditions: read-out: CLH
[3] = Intrinsic clearance in human hepatocytes; format: ADME, cell-based, Hepatocyte; conditions: read-out: CLH

pKa [1] | CLint scaled [2] | CLint scaled [3] | Compound
10.5 | – | – | CCN[C@H]1CC[C@@H](Nc2cc[nH]c(=O)c2-c2nc3ccccc3[nH]2)CC1
9.2 | – | – | COCCN[C@H]1CC[C@@H](Nc2cc[nH]c(=O)c2-c2nc3ccccc3[nH]2)CC1
4.8 | – | – | O=c1[nH]ccc(N[C@H]2CC[C@@H](NCC(F)(F)F)CC2)c1-c1nc2ccccc2[nH]1

Further lines, the compound ahead of its results:

Compound | pKa [1] | CLint scaled [2] | CLint scaled [3]
O=c1[nH]ccc(N[C@H]2CC[C@@H](NCC(F)F)CC2)c1-c1nc2ccccc2[nH]1 | 6.6 | – | –
N[C@H]1CC[C@@H](Nc2cc[nH]c(=O)c2-c2nc3ccccc3[nH]2)CC1 | – | < 15 mL/min/kg | 12 mL/min/kg
O=c1[nH]ccc(N[C@H]2CC[C@@H](NCCF)CC2)c1-c1nc2ccccc2[nH]1 | 8.8 | – | –
